The subject of the experiment is PAO1-EGFP biofilm. Description: Biofilm on steel coupons, fluorescence / CLSM. The conditions noted are these: 160 μM, 24 h, LB media. The experiment is classed as cell-based, Pseudomonas aeruginosa. As for the experimental part:
A crystal violet (CV) assay was used to measure the amount of PAO1 biofilm formed after 24 h of bacterial inoculation. The fluorescence of green fluorescent proteins (GFP) expressed by PAO1-GFP was measured to directly quantify bacterial adhesion on polystyrene black 96 well plates with and without maltose derivatives after 2 h of bacterial inoculation. To evaluate the potential of maltose derivatives as both anti-biofilm and anti-adhesion agents, they were compared to a brominated furanone (BF8) known to inhibit biofilm formation, and two generic surfactants, sodium dodecyl sulfate (SDS) and tetra (ethylene glycol) monododecyl ether (C12EG4OH). […] P. aeruginosa strain PAO1-EGFP that constitutively producing green fluorescent protein was allowed to form biofilm on sterile steel coupons.
Confocal laser scanning microscopy (CLSM) based biofilm inhibition assay. Steel coupons (˜1×1 cm) were washed with EtOH, dried under a stream of nitrogen and then sterilized in an autoclave. Overnight culture of PAO1/EGFP (OD600 ˜1.0) grown in LB media (supplemented with 300 μg/mL of carbenicillin), was sub-cultured to OD600˜0.01 and then the OD600 was allowed to reach ˜0.1. Aliquot (600 μL) of PAO1/EGFP subculture OD600˜0.1 was then added into the wells of a 24-well micro titer plate. DSHs were then introduced into the assigned wells to reach a resultant concentration of 160 μM. Bacterial sub-culture with no agent served as positive control. Sterile steel coupons were then placed into the wells and the plates were wrapped with saran wrap and incubated for 24 h at 37° C. under static conditions. After 24 hours, the steel coupons were removed and washed by dipping in PBS buffer (2 washes) and the dried by holding with a forcep and gently dabbing the edge on a bleached paper (KIM wipes). The dried steel coupons were viewed under confocal laser scanning microscope (CLSM). Images were taken at 4 random locations on each steel coupons. Z-stacked images were also taken to determine the relative thickness of the biofilm.

This is an account of results in US11357786B2, “Synthetic disugar hydrocarbons as natural analogs to control microbial behaviors” (Syracuse University, priority 2014, dated 2022).

Structures are written as SMILES.

`CC(C)CCCC(C)CCCC(C)CCO[C@H]1O[C@H](CO)[C@@H](O[C@@H]2O[C@H](CO)[C@@H](O)[C@H](O)[C@H]2O)[C@H](O)[C@H]1O` (stereo partly drawn) [SFαC (13), saturated farnesyl-α-cellobioside]: the “PAO1-EGFP biofilm on stainless steel coupons (CLSM)” value is “decreased the fluorescence signal significantly”.
For `CC(C)CCCC(C)CCCC(C)CCO[C@@H]1O[C@H](CO)[C@@H](O[C@@H]2O[C@H](CO)[C@@H](O)[C@H](O)[C@H]2O)[C@H](O)[C@H]1O` (stereo partly drawn) [SFβC (12), saturated famesyl-β-cellobioside], the “PAO1-EGFP biofilm on stainless steel coupons (CLSM)” value is reported as “decreased the fluorescence signal significantly”.
